From ChEMBL document CHEMBL1201862, “PubChem BioAssay data set” (2004)
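Interpolation was linear, between the two tested concentrations surrounding the appropriate level; five concentrations were tested over 48 hours in 96-well plates. At the GI50, growth is halved.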 Calls of active or inactive are those of the source. Cut-off read from the data, not from the text of the source: active = GI50 up to about 1.1 µM and inactive = higher.

How the values were obtained:
Experiment in all cases: inhibition of tumour cell growth, NCI panel, 48 h
CAKI-1 = test system: CAKI-1
HOP-92 = test system: HOP-92
HCT-15 = test system: HCT-15
SF-268 = test system: SF-268
MDA-N = test system: MDA-N
SR = test system: SR
Malme-3M = test system: Malme-3M
CCRF-CEM = test system: CCRF-CEM
EKVX = test system: EKVX
RXF 393 = test system: RXF 393
BT-549 = test system: BT-549
K562 = test system: K562
SK-MEL-5 = test system: SK-MEL-5
SK-MEL-28 = test system: SK-MEL-28
KM12 = test system: KM12
ACHN = test system: ACHN
HCC 2998 = test system: HCC 2998
M14 = test system: M14
SNB-19 = test system: SNB-19

Structure (SMILES) | GI50 (CAKI-1) | GI50 (HOP-92) | GI50 (HCT-15) [µM] | GI50 (SF-268) | GI50 (MDA-N) | GI50 (SR) | GI50 (Malme-3M) | GI50 (CCRF-CEM) | GI50 (EKVX) | GI50 (RXF 393) | GI50 (BT-549) | GI50 (K562) | GI50 (SK-MEL-5) | GI50 (SK-MEL-28) | GI50 (KM12) | GI50 (ACHN) | GI50 (HCC 2998) | GI50 (M14) | GI50 (SNB-19)
COc1ccc(C[C@@H]2OC3(C=CC(=O)C=C3)O[C@H]2Cc2ccc(OC)cc2)cc1 | 0.354 µM (active) | 0.653 µM (active) | 0.255 | 0.771 µM (active) | 0.476 µM (active) | 0.176 µM (active) | 1.51 µM (inactive) | 0.14 µM (active) | 1.89 µM (inactive) | 0.277 µM (active) | 0.221 µM (active) | 0.61 µM (active) | 1.52 µM (inactive) | 1.71 µM (inactive) | 1.91 µM (inactive) | 0.405 µM (active) | 1.52 µM (inactive) | 0.889 µM (active) | 1.82 µM (inactive)
CC1(C)COC(c2ccccc2-c2ccccc2)=N1 | 81.3 µM (inactive) | > 100 µM (inactive) | > 100 | > 100 µM (inactive) | > 100 µM (inactive) | > 100 µM (inactive) | > 100 µM (inactive) | > 100 µM (inactive) | 72.1 µM (inactive) | 70.5 µM (inactive) | > 100 µM (inactive) | 90.2 µM (inactive) | – | > 100 µM (inactive) | > 100 µM (inactive) | > 100 µM (inactive) | > 100 µM (inactive) | > 100 µM (inactive) | 71.6 µM (inactive)
CC1(C)C2CC(O)C1(C)CC2=O (stereo not drawn) | – | > 100 µM (inactive) | > 100 | > 100 µM (inactive) | > 100 µM (inactive) | > 100 µM (inactive) | > 100 µM (inactive) | > 100 µM (inactive) | – | > 100 µM (inactive) | > 100 µM (inactive) | > 100 µM (inactive) | > 100 µM (inactive) | 3.21 µM (inactive) | > 100 µM (inactive) | > 100 µM (inactive) | > 100 µM (inactive) | > 100 µM (inactive) | > 100 µM (inactive)
COc1cc(/C=N\N(C)C)cc(/C=N/N(C)C)c1O | 21.1 µM (inactive) | 6.14 µM (inactive) | 88.1 | 38.5 µM (inactive) | 25.9 µM (inactive) | 12.5 µM (inactive) | 10.8 µM (inactive) | 17.3 µM (inactive) | – | 43.1 µM (inactive) | 13.4 µM (inactive) | – | 26.2 µM (inactive) | 19.3 µM (inactive) | > 100 µM (inactive) | 21.3 µM (inactive) | – | 18.3 µM (inactive) | 30.6 µM (inactive)
CCOC(=O)C1=C(N)N2C(=N[C@H]3CCCC[C@@H]32)N=C1 | > 100 µM (inactive) | > 100 µM (inactive) | > 100 | > 100 µM (inactive) | > 100 µM (inactive) | > 100 µM (inactive) | > 100 µM (inactive) | – | > 100 µM (inactive) | > 100 µM (inactive) | > 100 µM (inactive) | > 100 µM (inactive) | > 100 µM (inactive) | > 100 µM (inactive) | > 100 µM (inactive) | > 100 µM (inactive) | > 100 µM (inactive) | > 100 µM (inactive) | > 100 µM (inactive)
CCOC(=O)C1C(=O)CC(C)(O)C(C(=O)OCC)C1c1ccc(O)c(OC)c1 (stereo not drawn) | > 100 µM (inactive) | > 100 µM (inactive) | > 100 | > 100 µM (inactive) | > 100 µM (inactive) | > 100 µM (inactive) | > 100 µM (inactive) | > 100 µM (inactive) | > 100 µM (inactive) | > 100 µM (inactive) | > 100 µM (inactive) | > 100 µM (inactive) | > 100 µM (inactive) | > 100 µM (inactive) | > 100 µM (inactive) | > 100 µM (inactive) | > 100 µM (inactive) | – | > 100 µM (inactive)
Cc1cc2c(cc1C)C(=O)/C(=N/Nc1ccc(F)cc1)CCO2 | > 100 µM (inactive) | > 100 µM (inactive) | > 100 | > 100 µM (inactive) | > 100 µM (inactive) | > 100 µM (inactive) | 37 µM (inactive) | > 100 µM (inactive) | > 100 µM (inactive) | – | > 100 µM (inactive) | > 100 µM (inactive) | 95.3 µM (inactive) | > 100 µM (inactive) | > 100 µM (inactive) | > 100 µM (inactive) | > 100 µM (inactive) | 87.5 µM (inactive) | > 100 µM (inactive)
COC(=O)CNC(=O)C(CSC(=O)OCC1c2ccccc2-c2ccccc21)NC(=O)CCC(NC(=O)OCC1c2ccccc2-c2ccccc21)C(=O)OC (stereo not drawn) | 7.5 µM (inactive) | 13.5 µM (inactive) | 28 | 21.3 µM (inactive) | 18.8 µM (inactive) | 12.6 µM (inactive) | 25.7 µM (inactive) | 14 µM (inactive) | 54.3 µM (inactive) | 16.8 µM (inactive) | 17.5 µM (inactive) | 28.7 µM (inactive) | 78.7 µM (inactive) | 38.1 µM (inactive) | – | 55.1 µM (inactive) | 21.2 µM (inactive) | 24 µM (inactive) | 23.8 µM (inactive)
N#CN1C2CCC1CC(=O)C2 | > 100 µM (inactive) | > 100 µM (inactive) | > 100 | > 100 µM (inactive) | > 100 µM (inactive) | > 100 µM (inactive) | > 100 µM (inactive) | > 100 µM (inactive) | > 100 µM (inactive) | – | > 100 µM (inactive) | > 100 µM (inactive) | > 100 µM (inactive) | > 100 µM (inactive) | > 100 µM (inactive) | > 100 µM (inactive) | > 100 µM (inactive) | > 100 µM (inactive) | > 100 µM (inactive)
COc1ccc(/C=N/n2c(Cc3ccc(Cl)cc3)n[nH]c2=O)cc1 | 30.8 µM (inactive) | 17.3 µM (inactive) | 38 | – | > 100 µM (inactive) | 37.3 µM (inactive) | – | > 100 µM (inactive) | 30.1 µM (inactive) | 16.8 µM (inactive) | 32.4 µM (inactive) | > 100 µM (inactive) | – | > 100 µM (inactive) | > 100 µM (inactive) | 45.1 µM (inactive) | > 100 µM (inactive) | 45.7 µM (inactive) | 15.7 µM (inactive)
O=C1Oc2ccccc2C(=O)/C1=C/N1C(=O)/C(=C/c2ccc([N+](=O)[O-])cc2)SC1=S | 24.5 µM (inactive) | 1.08 µM (active) | 19.1 | 23.2 µM (inactive) | 17.2 µM (inactive) | 31.6 µM (inactive) | 36.2 µM (inactive) | 34 µM (inactive) | 54.1 µM (inactive) | 25.7 µM (inactive) | 7.16 µM (inactive) | 19.4 µM (inactive) | 19.7 µM (inactive) | 22.7 µM (inactive) | 19 µM (inactive) | 15.6 µM (inactive) | 19.1 µM (inactive) | 22.8 µM (inactive) | 21.9 µM (inactive)
O=C(c1cccc2cc(O)ccc12)c1cn(CCN2CCOCC2)c2ccccc12 | 39.4 µM (inactive) | 31.4 µM (inactive) | – | 24 µM (inactive) | 25.2 µM (inactive) | 50.2 µM (inactive) | 22.8 µM (inactive) | 4.06 µM (inactive) | 28.1 µM (inactive) | 21.8 µM (inactive) | 23.4 µM (inactive) | 60.1 µM (inactive) | 40 µM (inactive) | 42.6 µM (inactive) | – | 33.7 µM (inactive) | – | 20 µM (inactive) | 55.7 µM (inactive)
CC(=O)N(C(=O)CC(=O)NNCc1ccccc1Cl)c1ccc(Cl)cc1 | > 10 µM (inactive) | > 10 µM (inactive) | > 10 | > 10 µM (inactive) | > 10 µM (inactive) | > 10 µM (inactive) | > 10 µM (inactive) | > 10 µM (inactive) | 4.99 µM (inactive) | > 10 µM (inactive) | > 10 µM (inactive) | > 10 µM (inactive) | > 10 µM (inactive) | > 10 µM (inactive) | > 10 µM (inactive) | > 10 µM (inactive) | > 10 µM (inactive) | > 10 µM (inactive) | > 10 µM (inactive)
CCN(C(=O)N[C@H](C(=O)N[C@@H](CSC)C(=O)N[C@@H](C)C(=O)OC)C(C)C)c1ccccc1 | 20 µM (inactive) | 12.8 µM (inactive) | 17.8 | – | 17.3 µM (inactive) | 3.83 µM (inactive) | 12.8 µM (inactive) | 2.94 µM (inactive) | 13.5 µM (inactive) | 17.7 µM (inactive) | 18.1 µM (inactive) | 13.1 µM (inactive) | 16.7 µM (inactive) | 15.3 µM (inactive) | 15.3 µM (inactive) | 15.6 µM (inactive) | 19.6 µM (inactive) | 14.2 µM (inactive) | 19.3 µM (inactive)
COC(=O)[C@@H]1C2OC(C)(C)OC2CN1C(=O)OCc1ccccc1 (stereo partly drawn) | > 100 µM (inactive) | > 100 µM (inactive) | > 100 | > 100 µM (inactive) | > 100 µM (inactive) | > 100 µM (inactive) | > 100 µM (inactive) | – | > 100 µM (inactive) | > 100 µM (inactive) | > 100 µM (inactive) | > 100 µM (inactive) | > 100 µM (inactive) | > 100 µM (inactive) | > 100 µM (inactive) | > 100 µM (inactive) | > 100 µM (inactive) | > 100 µM (inactive) | > 100 µM (inactive)
Cc1cn([C@@H]2C[C@H](CO)[C@@H]2O)c(=O)[nH]c1=O | > 100 µM (inactive) | > 100 µM (inactive) | > 100 | > 100 µM (inactive) | > 100 µM (inactive) | > 100 µM (inactive) | > 100 µM (inactive) | > 100 µM (inactive) | > 100 µM (inactive) | > 100 µM (inactive) | > 100 µM (inactive) | > 100 µM (inactive) | > 100 µM (inactive) | > 100 µM (inactive) | > 100 µM (inactive) | > 100 µM (inactive) | > 100 µM (inactive) | – | –
